Counter-ions that a name gives are not always drawn. Like-named read-outs stand apart in the source and are kept apart here.

The text below walks through data of US10562878B2, “Cycloalkylamines as monoamine reuptake inhibitors” (Sunovion Pharmaceuticals Inc., priority 2006, dated 2020).

For one assay, the system named is mice. In words: Mouse tail suspension test. Type of assay: in vivo.
For assay [1], the target named is DA Transporter (DAT) sites in mouse brain (Mus musculus (Mouse), UniProt Q61327). In words: Ex vivo [3H] WIN 35428 binding to DAT sites in mouse brain after oral dosing. Conditions: mice, 60 min after treatment; for receptor occupancy at 1 mg/kg / receptor occupancy at 3 mg/kg / receptor occupancy at 10 mg/kg / receptor occupancy at 30 mg/kg: mouse.
The target in assay [2] is T1, Norepinephrine Transporter (NET) sites in mouse brain (Mus musculus (Mouse), UniProt O55192). In words: in vivo. The conditions noted are these: po, read-out: NET % Transporter Occupancy.
The subject of another assay is Rats. In words: Rat forced swim test. Type of assay: in vivo.
The target of assay [3] is T1, Norepinephrine Transporter (NET) sites in mouse brain. The conditions noted are these: mice, 60 min after treatment.
The target of assay [4] is 5-HT Transporter (SERT) sites in mouse brain (Mus musculus (Mouse), UniProt Q60857). In words: Ex vivo [3H] citalopram binding to SERT sites in mouse brain after oral dosing. Conditions: mice, 60 min after treatment; for receptor occupancy at 1 mg/kg / receptor occupancy at 3 mg/kg / receptor occupancy at 10 mg/kg / receptor occupancy at 30 mg/kg: mouse.
For assay [5], the target named is human dopamine transporter (Homo sapiens (Human), UniProt Q01959). In words: Dopamine functional uptake assay, recombinant human transporter in CHO-K1 or HEK293 cells. Type of assay: cell-based. The conditions noted are these: read-out: hDAT IC50.
Assay [6] addresses human serotonin transporter (Homo sapiens (Human), UniProt P31645). In words: Serotonin functional uptake assay, recombinant human transporter in HEK-293 cells. Conditions: Human serotonin transporter uptake; read-out: hSERT IC50. It counts as cell-based.

human dopamine transporter, sequence (Q01959 whole entry): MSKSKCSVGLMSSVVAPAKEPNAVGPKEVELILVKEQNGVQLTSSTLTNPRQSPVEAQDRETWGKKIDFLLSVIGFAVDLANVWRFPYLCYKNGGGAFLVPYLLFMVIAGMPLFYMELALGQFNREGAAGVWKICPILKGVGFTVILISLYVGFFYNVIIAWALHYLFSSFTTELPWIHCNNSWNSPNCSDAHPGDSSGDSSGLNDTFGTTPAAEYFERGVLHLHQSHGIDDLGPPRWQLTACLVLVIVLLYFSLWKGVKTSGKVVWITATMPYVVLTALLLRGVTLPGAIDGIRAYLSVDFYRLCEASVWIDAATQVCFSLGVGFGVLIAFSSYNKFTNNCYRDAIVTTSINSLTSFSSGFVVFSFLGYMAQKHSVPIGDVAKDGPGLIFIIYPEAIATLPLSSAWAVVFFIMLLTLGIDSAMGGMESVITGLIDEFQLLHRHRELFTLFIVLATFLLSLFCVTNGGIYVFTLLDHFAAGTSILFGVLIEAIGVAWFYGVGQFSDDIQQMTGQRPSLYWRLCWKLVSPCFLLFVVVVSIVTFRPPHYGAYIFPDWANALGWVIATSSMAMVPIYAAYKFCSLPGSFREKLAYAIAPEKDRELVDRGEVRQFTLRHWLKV
human serotonin transporter, sequence (P31645 whole entry): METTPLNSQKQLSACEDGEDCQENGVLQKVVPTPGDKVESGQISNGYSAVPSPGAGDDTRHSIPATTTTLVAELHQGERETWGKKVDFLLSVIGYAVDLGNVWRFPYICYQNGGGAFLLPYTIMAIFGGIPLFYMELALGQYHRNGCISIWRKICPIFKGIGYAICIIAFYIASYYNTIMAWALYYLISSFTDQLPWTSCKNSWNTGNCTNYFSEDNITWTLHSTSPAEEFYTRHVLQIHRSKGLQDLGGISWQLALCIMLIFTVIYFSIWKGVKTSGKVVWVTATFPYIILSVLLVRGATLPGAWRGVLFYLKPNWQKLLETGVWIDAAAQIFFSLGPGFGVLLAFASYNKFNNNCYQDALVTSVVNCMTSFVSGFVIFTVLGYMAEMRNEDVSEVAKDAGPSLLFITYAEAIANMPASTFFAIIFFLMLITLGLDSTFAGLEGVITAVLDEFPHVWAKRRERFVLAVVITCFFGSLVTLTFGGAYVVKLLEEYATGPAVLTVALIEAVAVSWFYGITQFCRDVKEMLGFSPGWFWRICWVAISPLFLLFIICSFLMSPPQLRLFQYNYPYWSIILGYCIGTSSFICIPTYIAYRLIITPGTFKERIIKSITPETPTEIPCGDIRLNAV

In the case of `CN(C)C[C@]1(c2ccc3ccccc3c2)CCCC[C@H]1O` (relative stereo) [164 E2, trans-2-((dimethylamino)methyl)-2-(naphthalen-2-yl)cyclohexanol], the “Mouse Tail Suspension Mean Immobility Time ± S.E.M.” value in the assay with mice (30 mg/kg PO) was 141.8 ± 6.0.
With `CC(N(C)C)C1(c2ccc3ccccc3c2)CCCCC1` (single isomer, unassigned) [56 E1, N,N-dimethyl-1-(1-(naphthalen-2-yl)cyclohexyl)ethanamine], the “DAT Mean Specific Binding ± S.E.M.” value is 41561 ± 1611 dpm in assay [1] (1 mg/kg PO), 42127 ± 2130 dpm in assay [1] (3 mg/kg PO), 33478 ± 1779 dpm in assay [1] (10 mg/kg PO) and 14637 ± 1567 dpm in assay [1] (30 mg/kg PO). Besides, the receptor occupancy at 1 mg/kg in assay [1] (1 mg/kg PO) was 5%; in assay [2], 20%; in assay [4] (1 mg/kg PO), 19%. The receptor occupancy at 3 mg/kg in assay [1] (3 mg/kg PO) was 4%; in assay [2], 52%; in assay [4] (3 mg/kg PO), 58%. Moreover, the receptor occupancy at 10 mg/kg in assay [1] (10 mg/kg PO) is 23%; in assay [2], 86%; in assay [4] (10 mg/kg PO), 91%. Also, the receptor occupancy at 30 mg/kg in assay [1] (30 mg/kg PO) is 67%; in assay [2] it was 98%; in assay [4] (30 mg/kg PO), 95%. For the same compound, the “Mouse Tail Suspension Mean Immobility Time ± S.E.M.” value is 174.8 ± 6.1 in the assay with mice (10 mg/kg PO) and 141.9 ± 7.4 with mice (30 mg/kg PO). For the same compound, the “Rat Forced Swim Climbing (Means ± S.E.M.)” value (“Rat Forced Swim Climbing” for short) in the assay with Rats (3 mg/kg PO) turned out to be 7.1 ± 1.6; with Rats (10 mg/kg PO), 8.6 ± 0.9; in the assay with Rats (30 mg/kg PO), 17.9 ± 2.4. In addition, the “Rat Forced Swim Immobility (Means ± S.E.M.)” value (shortened to “Rat Forced Swim Immobility”) came out at 52.2 ± 1.6 in the assay on Rats (3 mg/kg PO), 50.7 ± 1.0 in the assay on Rats (10 mg/kg PO) and 40.4 ± 2.7 in the assay with Rats (30 mg/kg PO). For the same compound, the “Rat Forced Swim Swimming (Means ± S.E.M.)” value (from here on “Rat Forced Swim Swimming”) in the assay on Rats (3 mg/kg PO) is recorded as 0.3 ± 0.2; with Rats (10 mg/kg PO) it was 0.8 ± 0.3; in the assay with Rats (30 mg/kg PO), 1.0 ± 0.4. Also, the “NET Mean Specific Binding ± S.E.M.” value in assay [3] (1 mg/kg PO) is 616 ± 50 dpm; in assay [3] (3 mg/kg PO), 368 ± 17 dpm; in assay [3] (10 mg/kg PO) it was 106 ± 20 dpm; in assay [3] (30 mg/kg PO), 19 ± 2 dpm. The “SERT Mean Specific Binding ± S.E.M.” value in assay [4] (1 mg/kg PO) is 2625 ± 138 dpm; in assay [4] (3 mg/kg PO) it was 1346 ± 109 dpm; in assay [4] (10 mg/kg PO) it was 278 ± 42 dpm; in assay [4] (30 mg/kg PO), 151 ± 60 dpm.
For the compound `CN[C@H](C)C1(c2ccc(Cl)c(Cl)c2)CCCCC1` (stereo in doubt) [48 E1, 1-(1-(3,4-dichlorophenyl)cyclohexyl)-N-methylethanamine hydrochloride], the “DAT Mean Specific Binding ± S.E.M.” value is given as 20656 ± 1531 dpm in assay [1] (1 mg/kg PO), 18039 ± 1265 dpm in assay [1] (3 mg/kg PO), 9792 ± 977 dpm in assay [1] (10 mg/kg PO) and 3173 ± 541 dpm in assay [1] (30 mg/kg PO). Moreover, the results for the receptor occupancy at 1 mg/kg in assay [1] (1 mg/kg PO), in assay [2] and in assay [4] (1 mg/kg PO) were -1%, 12% and -1%, respectively. The receptor occupancy at 3 mg/kg in assay [1] (3 mg/kg PO) was 11%; in assay [2], 21%. In addition, the receptor occupancy at 10 mg/kg is 52% in assay [1] (10 mg/kg PO) and 60% in assay [2]. In addition, the receptor occupancy at 30 mg/kg in assay [1] (30 mg/kg PO) is 84%; in assay [2], 86%. Also, the “Mouse Tail Suspension Mean Immobility Time ± S.E.M.” value came out at 174.1 ± 5.8 in the assay on mice (10 mg/kg PO) and 134.5 ± 9.6 with mice (30 mg/kg PO). In addition, the figures for the “Rat Forced Swim Climbing” value in the assay with Rats (3 mg/kg PO), in the assay with Rats (10 mg/kg PO) and in the assay on Rats (30 mg/kg PO) were 7.1 ± 0.6, 17.9 ± 2.5 and 20.6 ± 2.9, respectively. Besides, the “Rat Forced Swim Immobility” value with Rats (3 mg/kg PO) came out at 49.6 ± 1.5; in the assay with Rats (10 mg/kg PO), 35.6 ± 3.5; with Rats (30 mg/kg PO), 26.9 ± 4.4. In addition, the “Rat Forced Swim Swimming” value with Rats (3 mg/kg PO) came out at 3.7 ± 1.0; with Rats (10 mg/kg PO), 6.5 ± 1.6; with Rats (30 mg/kg PO), 9.7 ± 1.7. Further, the “NET Mean Specific Binding ± S.E.M.” value in assay [3] (1 mg/kg PO) amounted to 2111 ± 119 dpm; in assay [3] (3 mg/kg PO), 1911 ± 144 dpm; in assay [3] (10 mg/kg PO) it was 954 ± 115 dpm; in assay [3] (30 mg/kg PO), 346 ± 55 dpm.
As to `CNCC1(c2ccc3ccccc3c2)CCCCC1` [Compound 93, N-methyl-1-(1-(naphthalen-2-yl)cyclohexyl)methanamine], the “Mouse Tail Suspension Mean Immobility Time ± S.E.M.” value with mice (30 mg/kg PO) is 162.0 ± 8.1. Further, the entries for the “Rat Forced Swim Climbing” value in the assay on Rats (3 mg/kg PO), in the assay on Rats (10 mg/kg PO) and in the assay on Rats (30 mg/kg PO) were 9.0 ± 1.3, 12.8 ± 2.2 and 22.2 ± 3.5, respectively. For the same compound, the “Rat Forced Swim Immobility” value was found to be 44.5 ± 2.5 in the assay with Rats (3 mg/kg PO), 41.4 ± 2.8 with Rats (10 mg/kg PO) and 25.8 ± 5.4 with Rats (30 mg/kg PO). The “Rat Forced Swim Swimming” value in the assay on Rats (3 mg/kg PO) was determined as 6.5 ± 1.6; in the assay with Rats (10 mg/kg PO), 6.9 ± 1.3; in the assay on Rats (30 mg/kg PO), 12.0 ± 2.1.
As usually defined, the IC50 is the point on the concentration scale where inhibition reaches its midpoint. Consider `CNCC1(c2ccc(Cl)c(Cl)c2)CCC(C)(O)CC1` (centres unmarked) [Compound 276, 4-(3,4-dichlorophenyl)-1-methyl-4-((methylamino)methyl)cyclohexanol], for which the IC50 in assay [5] is 0.071 µM. For the same compound, the results for the “DAT Mean Specific Binding ± S.E.M.” value in assay [1] (3 mg/kg PO), in assay [1] (10 mg/kg PO) and in assay [1] (30 mg/kg PO) were 16312 ± 2396 dpm, 15879 ± 2265 dpm and 10397 ± 931 dpm, respectively. Moreover, the receptor occupancy at 1 mg/kg is -21% in assay [1] (1 mg/kg PO), -4% in assay [2] and 12% in assay [4] (1 mg/kg PO). Further, the receptor occupancy at 3 mg/kg is -9% in assay [1] (3 mg/kg PO), -6% in assay [2] and 14% in assay [4] (3 mg/kg PO). For the same compound, the receptor occupancy at 10 mg/kg in assay [1] (10 mg/kg PO) was -6%; in assay [2], -1%; in assay [4] (10 mg/kg PO) it was 28%. Moreover, the values for the receptor occupancy at 30 mg/kg in assay [1] (30 mg/kg PO), in assay [2] and in assay [4] (30 mg/kg PO) were 31%, 26% and 64%, respectively. In addition, the “NET Mean Specific Binding ± S.E.M.” value in assay [3] (1 mg/kg PO) amounted to 1602 ± 51 dpm; in assay [3] (3 mg/kg PO), 1631 ± 92 dpm; in assay [3] (10 mg/kg PO), 1553 ± 27 dpm; in assay [3] (30 mg/kg PO), 1138 ± 59 dpm. In addition, the “SERT Mean Specific Binding ± S.E.M.” value is 3743 ± 199 dpm in assay [4] (1 mg/kg PO), 3685 ± 292 dpm in assay [4] (3 mg/kg PO), 3092 ± 207 dpm in assay [4] (10 mg/kg PO) and 1558 ± 169 dpm in assay [4] (30 mg/kg PO).
`CN(C)CC1(c2ccc(Cl)c(Cl)c2)CCC(C)(O)CC1` (centres unmarked) [Compound 277, 4-(3,4-dichlorophenyl)-4-((dimethylamino)methyl)-1-methylcyclohexanol]: the IC50 in assay [5] is 0.041 µM. Further, the “DAT Mean Specific Binding ± S.E.M.” value in assay [1] (1 mg/kg PO) was 35827 ± 2302 dpm; in assay [1] (3 mg/kg PO) it was 34136 ± 4104 dpm; in assay [1] (10 mg/kg PO), 33230 ± 2807 dpm; in assay [1] (30 mg/kg PO), 31743 ± 4406 dpm. Also, the receptor occupancy at 1 mg/kg was 17% in assay [1] (1 mg/kg PO), 6% in assay [2] and -6% in assay [4] (1 mg/kg PO). Moreover, the results for the receptor occupancy at 3 mg/kg in assay [1] (3 mg/kg PO), in assay [2] and in assay [4] (3 mg/kg PO) were 21%, 18% and -5%, respectively. The receptor occupancy at 10 mg/kg in assay [1] (10 mg/kg PO) was 23%; in assay [2], 47%; in assay [4] (10 mg/kg PO), 0%. The receptor occupancy at 30 mg/kg in assay [1] (30 mg/kg PO) was 26%; in assay [2], 71%; in assay [4] (30 mg/kg PO), 3%. Further, the “NET Mean Specific Binding ± S.E.M.” value is 950 ± 46 dpm in assay [3] (1 mg/kg PO), 824 ± 30 dpm in assay [3] (3 mg/kg PO), 533 ± 25 dpm in assay [3] (10 mg/kg PO) and 294 ± 42 dpm in assay [3] (30 mg/kg PO). The “SERT Mean Specific Binding ± S.E.M.” value in assay [4] (1 mg/kg PO) worked out at 1508 ± 86 dpm; in assay [4] (3 mg/kg PO), 1491 ± 75 dpm; in assay [4] (10 mg/kg PO), 1416 ± 43 dpm; in assay [4] (30 mg/kg PO), 1384 ± 101 dpm.
Consider `CCN(C)[C@H]1CC[C@@](CN)(c2ccc(Cl)c(Cl)c2)CC1` [Compound 290, trans-4-(aminomethyl)-4-(3,4-dichlorophenyl)-N-ethyl-N-methylcyclo-hexanamine], for which the values for the IC50 in assay [5] and in assay [6] were 1.39 µM and 0.992 µM, respectively.
